Molecular target: PvlArgDC (pyruvoyl-dependent arginine decarboxylase) (Methanocaldococcus jannaschii, UniProt Q57764)
Assay: X-ray crystal structure, […] A
Format: binding
Details: cocrystallized with 1-2 mM arginine, pH 6.7-7.3, 295 K; agmatine in all six active sites

Sequence of PvlArgDC (pyruvoyl-dependent arginine decarboxylase) (Q57764 53-165): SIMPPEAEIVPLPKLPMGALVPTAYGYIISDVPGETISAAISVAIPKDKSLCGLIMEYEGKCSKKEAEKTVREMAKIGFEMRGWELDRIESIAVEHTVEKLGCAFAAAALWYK
Sequence of PvlArgDC (pyruvoyl-dependent arginine decarboxylase) (Q57764 1-52): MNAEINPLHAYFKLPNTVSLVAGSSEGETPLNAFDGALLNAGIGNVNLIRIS

N=C(N)NCCCCN [agmatine]
X-ray crystal structure, 2.0 A: all six protomers were fully processed and contained the product agmatine at the active site
